What was measured:
[1] = tested on: acetylated α-tubulin (Ac-α-tub); assay: Western blot of acetylated α-tubulin in primary DRG cells; type: cell-based, C57BL/6J mice; conditions: 48 hours of treatment, FIG. 2
Method: (§1) To investigate the effect of HDAC6 inhibitors in neuron protection and neuron regeneration, the recovery of dorsal root ganglion (DRG) cells post-paclitaxel injury was tested. Dorsal root ganglion was extracted from 7 week-old female C57BL/6J mice and incubated with HDAC6 inhibitors (compounds COMPOUND 33, COMPOUND 34, or COMPOUND 2) at the concentrations of 0.1 μM and 1 μM, or 100 ng/ml of BDNF, a neuronal growth factor (positive control), for 24 hours prior to a 24-hour incubation of 0.1 μM paclitaxel.

[2] = target: T1, HDAC6 (Homo sapiens, UniProt Q9UBN7); assay: HDAC6 activity, acetylated-AMC-labeled peptide substrate; type: biochemical; conditions: for HDAC6 selectivity (A)/(B): HDAC1 IC50 / HDAC6 IC50; for IC50: read-out: HDAC6 IC50 (B)
T1 construct: GST (N); host or cells: baculovirus expression system, Sf9 insect cells
T1 sequence (Q9UBN7 1-1215): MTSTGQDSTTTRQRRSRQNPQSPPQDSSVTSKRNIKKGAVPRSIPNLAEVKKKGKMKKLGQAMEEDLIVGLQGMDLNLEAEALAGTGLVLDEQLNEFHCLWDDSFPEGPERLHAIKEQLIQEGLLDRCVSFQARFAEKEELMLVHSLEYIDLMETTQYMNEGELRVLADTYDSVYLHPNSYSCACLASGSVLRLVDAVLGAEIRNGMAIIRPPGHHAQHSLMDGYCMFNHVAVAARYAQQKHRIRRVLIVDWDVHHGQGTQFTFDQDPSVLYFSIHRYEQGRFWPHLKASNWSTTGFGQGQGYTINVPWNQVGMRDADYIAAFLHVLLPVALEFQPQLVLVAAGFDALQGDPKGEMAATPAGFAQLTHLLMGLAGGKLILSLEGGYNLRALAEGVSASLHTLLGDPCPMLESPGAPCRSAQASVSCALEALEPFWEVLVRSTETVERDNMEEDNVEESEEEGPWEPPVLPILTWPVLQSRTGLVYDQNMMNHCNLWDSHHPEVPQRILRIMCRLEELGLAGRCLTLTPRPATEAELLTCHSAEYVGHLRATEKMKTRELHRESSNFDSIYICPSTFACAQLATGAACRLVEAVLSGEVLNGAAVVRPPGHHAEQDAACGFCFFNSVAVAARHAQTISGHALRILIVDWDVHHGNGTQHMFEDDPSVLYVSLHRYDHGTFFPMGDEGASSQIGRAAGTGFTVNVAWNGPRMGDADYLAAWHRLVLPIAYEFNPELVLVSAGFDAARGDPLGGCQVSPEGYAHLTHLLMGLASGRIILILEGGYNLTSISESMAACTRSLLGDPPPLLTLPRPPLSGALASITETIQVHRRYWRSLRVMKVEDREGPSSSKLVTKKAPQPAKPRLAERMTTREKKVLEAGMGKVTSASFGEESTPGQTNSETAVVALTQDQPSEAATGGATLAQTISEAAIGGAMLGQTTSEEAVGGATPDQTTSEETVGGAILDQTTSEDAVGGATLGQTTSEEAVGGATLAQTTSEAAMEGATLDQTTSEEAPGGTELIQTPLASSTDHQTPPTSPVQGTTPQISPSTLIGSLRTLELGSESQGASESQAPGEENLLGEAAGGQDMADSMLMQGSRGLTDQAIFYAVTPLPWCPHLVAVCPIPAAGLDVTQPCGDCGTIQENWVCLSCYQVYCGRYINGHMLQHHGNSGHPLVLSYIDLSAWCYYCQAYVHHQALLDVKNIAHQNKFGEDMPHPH
Method: (§2) The activities of HDAC 1 and 6 were measured by using an acetylated-AMC-labeled peptide substrate, a fluorogenic peptide from p53 residues 379-382 (RHIKKAc). The proteins involved in the assay are as the followings (1) Human HIDAC1 (Genflank Accession No. NM_004964): Full length with C-terminal GST tag, MW=79.9 kDa, expressed by baculovirus expression system in SP9 cells; and (2) Human HIDAC6 (Genflank Accession No. BC069243): Full length with N-terminal GST tag, MW=159 kDa, expressed by baculovirus expression system in Sf9 cells.

[3] = target: T2, HDAC1 (Homo sapiens, UniProt Q13547); assay: HDAC1 activity, acetylated-AMC-labeled peptide substrate; type: biochemical
T2 construct: GST (C); host or cells: baculovirus expression system, Sf9 insect cells (SP9 [sic])
T2 sequence (Q13547 whole entry): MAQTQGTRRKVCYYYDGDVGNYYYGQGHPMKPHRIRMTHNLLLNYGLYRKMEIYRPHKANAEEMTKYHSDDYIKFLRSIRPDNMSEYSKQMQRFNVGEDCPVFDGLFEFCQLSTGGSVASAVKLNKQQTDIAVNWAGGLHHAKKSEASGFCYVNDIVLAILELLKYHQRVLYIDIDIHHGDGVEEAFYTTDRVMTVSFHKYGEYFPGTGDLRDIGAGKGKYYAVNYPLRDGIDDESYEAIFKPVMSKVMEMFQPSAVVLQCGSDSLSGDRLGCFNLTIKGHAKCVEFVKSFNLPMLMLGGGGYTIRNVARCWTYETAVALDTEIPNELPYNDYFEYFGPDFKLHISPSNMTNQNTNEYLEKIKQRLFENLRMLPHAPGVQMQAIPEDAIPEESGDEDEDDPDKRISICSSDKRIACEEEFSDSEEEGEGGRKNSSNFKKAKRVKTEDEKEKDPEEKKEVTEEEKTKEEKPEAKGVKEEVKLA
Method: as §2

[4] = Oral pharmacokinetics (Table II); set-up: AUC: concentration or dose not given beside the values; conditions: in vivo; for AUC: unit inferred
[5] = tested on: dorsal root ganglion (DRG) cells; assay: DRG neurite outgrowth after paclitaxel-induced damage; type: cell-based, C57BL/6J mice; conditions: 0.1 μM and 1 μM, 24 hours prior to 24-hour 0.1 μM paclitaxel; FIG. 1
Method: as §1
The neurite was stained by pIII-tubulin.

[6] = tested on: cisplatin-induced neuropathy; assay: Cisplatin-induced neuropathy, von Frey paw-withdrawal murine model; type: in vivo, Balb/c mice; conditions: oral once daily Day 16 to 29 (pregabalin 15 mg/kg one hour prior to test); vs cisplatin control; FIG. 4
Method: To understand whether COMPOUND 2 exerts neuron protective activities in cisplatin-induced neuropathy, a paw-withdrawal murine model is deployed. The 50% paw withdrawal threshold (PWT) to a static mechanical stimulus was assessed using von Frey filament and up-and-down method following the procedure described by Chaplan (1994). Mechanical allodynia, a painful sensation caused by innocuous stimuli like light touch, was assessed by the manual von Frey test once per week (on day 7, 14, 21, 28, […], and 42). The animals indicated sensation by pulling back its paw. The minimum force leading to withdrawal of the paw was regarded as the reflex threshold.
Balb/c mice weighing about 25±2 gram were given cisplatin intraperitoneally at the dose of 1.5 mg/kg for 5 consecutive days (cumulative dose of 7.5 mg/kg), followed by 5 days of recovery. The cisplatin administration cycle was repeated once more to reach a cumulative dose of 15 mg/kg to induce neuropathy. Test compounds, COMPOUND 2 and ACY1215, were orally administered once daily for 2 weeks (except for the weekends) from Day 16 to 29. Pregabalin, a drug known to provide transient pain relief, was administered at a dose of 15 mg/kg prior to each von Frey stimulus test to serve as the positive control.

[7] = tested on: Rat DRG cells; assay: Cisplatin-induced neurite degeneration in DRG cells; type: cell-based; conditions: 0.3 μM with 0.5 mM cisplatin, 48 hours; p<0.05; FIG. 3
Method: Rat DRG cells were used to investigate the protective effect of HDAC6 inhibitors. DRG cells were treated with 0.5 mM of cisplatin with or without 0.3 μM of COMPOUND 2 or ACY1215 for 48 hours. The neurite area and the number of blebs (cell apoptosis) per image were calculated and their ratio values among the tested groups were compared and shown in FIG. 3.

[8] = tested on: paclitaxel-induced peripheral neuropathy; assay: Paclitaxel-induced peripheral neuropathy, Von Frey test; type: in vivo, Sprague-Dawley (SD) rats; conditions: for mean withdrawal force threshold: 15 mg/kg one hour prior to test, mean±SEM
Method: Male Sprague-Dawley (SD) rats, weighing 320±30 grams, were given paclitaxel intraperitoneally at the dose of 6 mg/kg for 5 consecutive days with a total cumulative dose of 30 mg/kg to induce chemotherapy-induced peripheral neuropathy.
Compound 2 or vehicle was administered orally once daily for 2 weeks during the weekdays (Days 8 to 12 and 15-19). Mechanical allodynia is assessed by the manual Von Frey test once per week. The animals are given 20 to 30 minutes to acclimatize prior to the testing. The paw is pressed with a series of 8 manual Von Frey monofilaments with logarithmically incremental stiffness [3.61 (0.4 g), 3.84 (0.6 g), 4.08 (1.0 g), 4.31 (2.0 g), 4.56 (4.0 g), 4.93 (8.0 g), 5.18 (15.0 g) and (26.0 g)]. The manual Von Frey monofilament was applied perpendicularly from underneath the mesh floor to the central plantar surface with sufficient force to cause a slight buckling against the paw, and held for approximately 6-8 seconds. A positive response was noted if the paw is sharply withdrawn; ambulation is considered an ambiguous response, and in such cases, the stimulus is reapplied. The 50% paw withdrawal threshold (PWT) to a static mechanical stimulus was assessed using Von Frey filament and up-and-down method.
Von Frey data were presented as mean±SEM (Standard Error of the Mean). Treatment groups were compared to the paclitaxel control using Student's T-test. A p value <0.05 is considered to represent a significant difference.

| Compound | tubulin hyperacetylation [1] | HDAC6 selectivity (A)/(B) [2] | IC50 [2] [µM] | IC50 [3] [µM] | Cmax [4] [ng/mL] | AUC [4] [ng·h/mL] | neurite outgrowth [5] | mean withdrawal threshold (50% PWT) [6] | neurite degeneration (neurite area and number of blebs ratio) [7] | mean withdrawal force threshold ([8]; Day 14) [g] | mean withdrawal force threshold ([8]; Day 21) [g] | pain-relief after dosing was stopped ([8]; FIG. 7) |
| --- | --- | --- | --- | --- | --- | --- | --- | --- | --- | --- | --- | --- |
| CCc1nc2cc(F)c(/C=C/C(=O)NO)cc2c(=O)n1-c1ccc(OC)cc1C [Compound 34, (E)-3-(2-ethyl-7-fluoro-3-(4-methoxy-2-methylphenyl)-4-oxo-3,4-dihydroquinazolin-6-yl)-N-hydroxyacrylamide] | tubulin hyperacetylation | 175 | 0.026 | 4.55 | 873 | 11000 | significantly rescued the neurite outgrowth |  |  |  |  |  |
| CCc1nc2c(F)cc(/C=C/C(=O)NO)cc2c(=O)n1-c1c(C)cccc1C [Compound 11, (E)-3-(3-(2,6-dimethylphenyl)-2-ethyl-8-fluoro-4-oxo-3,4-dihydroquinazolin-6-yl)-N-hydroxyacrylamide] |  | 43 | 0.159 | 6.9 | 727 | 7180 |  |  |  |  |  |  |
| Cc1ccccc1-n1c(C)nc2cc(F)c(/C=C/C(=O)NO)cc2c1=O [Compound 44] |  | 129 | 0.02 | 2.58 | 719 | 5720 |  |  |  |  |  |  |
| Cc1cccc(C)c1-n1c(C)nc2cc(F)c(/C=C/C(=O)NO)cc2c1=O [Compound 1, (E)-3-(3-(2,6-dimethylphenyl)-7-fluoro-2-methyl-4-oxo-3,4-dihydroquinazolin-6-yl)-N-hydroxyacrylamide] |  | 328 | 0.012 | 3.94 | 4130 | 5830 |  |  |  |  |  |  |
| CCc1nc2cc(F)c(/C=C/C(=O)NO)cc2c(=O)n1-c1cccc(C)c1C [Compound 22, (E)-3-(3-(2,3-dimethylphenyl)-2-ethyl-7-fluoro-4-oxo-3,4-dihydroquinazolin-6-yl)-N-hydroxyacrylamide] |  | 77 | 0.055 | 4.24 | 3330 | 9920 |  |  |  |  |  |  |
| CCc1nc2cc(F)c(/C=C/C(=O)NO)cc2c(=O)n1-c1ccc(Br)cc1C [Compound 6, (E)-3-(3-(4-bromo-2-methylphenyl)-2-ethyl-7-fluoro-4-oxo-3,4-dihydroquinazolin-6-yl)-N-hydroxyacrylamide] |  | 85 | 0.06 | 5.1 | 3630 | 42600 |  |  |  |  |  |  |
| O=C(CCCCCCNC(=O)c1cnc(N(c2ccccc2)c2ccccc2)nc1)NO [ACY-1215, reference compound] |  |  |  |  |  |  |  | not ACY1215, Reverses Cisplatin-Induced Neuropathy | significantly lesser degree of neurite degeneration |  |  |  |
| CC(C)C[C@H](CN)CC(=O)O [Pregabalin, reference compound] |  |  |  |  |  |  |  | increased withdrawal threshold |  | 24.1 ± 3.45 | 26 ± 0 | failed to show the efficacy |
| CCc1nc2cc(F)c(/C=C/C(=O)NO)cc2c(=O)n1-c1ccc(F)cc1C [Compound 26, (E)-3-(2-ethyl-7-fluoro-3-(4-fluoro-2-methylphenyl)-4-oxo-3,4-dihydroquinazolin-6-yl)-N-hydroxyacrylamide] |  | 180 | 0.024 | 4.32 | 2680 | 12000 |  |  |  |  |  |  |

Reference: patent US20230212129A1, “QUINAZOLINE DERIVATIVES USEFUL AS SELECTIVE HDAC6 INHIBITORS” (AnnJi Pharmaceutical Co., Ltd., priority 2020, published 2023)
